Test results from US20110319603A1, “METHOD FOR FLU[…] PROTEIN” (OSAKA UNIVERSITY, priority 2009, published 2011).

Experiments:
[1] = biological target: T1, PYP (Halorhodospira halophila, UniProt P16113); assay: Reaction between PYP and FCTP, analyzed by SDS-PAGE (CBB-stained and fluorescent image); assay type: binding
T1 construct: His tag (with enterokinase cleavage site) (N, cleaved yes); made in house; host or cells: E. coli BL21 (DE3), pET-21b(+) (pET-PYP)
T1 sequence (P16113 1-125): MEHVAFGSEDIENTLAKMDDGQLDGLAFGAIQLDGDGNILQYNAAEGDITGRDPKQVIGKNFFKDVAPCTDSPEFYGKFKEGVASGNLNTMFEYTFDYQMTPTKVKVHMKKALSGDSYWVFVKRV
Protocol: In Tris buffer (20 mM Tris-HCl, 150 mM NaCl, 1 mM TCEP (pH 8.0)), 5 μM of PYP was reacted with 12.5 μM of compound FCTP at 37° C. for 24 hours. After completion of the reaction, the result was analyzed by SDS-PAGE (20% acrylamide separation gel). […] With reference to FIG. 1(b), similarly in the fluorescent image, fluorescence was observed.

[2] = tested on: PYP-TM expressed on HEK293T cells; assay: Labeling reaction with CATP in cultured cell, PYP-TM (fluorescence microscopy); assay type: cell-based, Halorhodospira halophila; conditions: CATP 5 μM, 30 minutes
Protocol: (§1) A plasmid was prepared in which a gene MBP-PYP obtained by fusing a maltose binding protein (MBP) with a PYP was introduced into the multicloning site of pcDNA3.1, which was a mammalian expression vector. Furthermore, in order to express a PYP on the cell surface, a plasmid was prepared in which a gene PYP-TM obtained by fusing a PYP with the transmembrane domain of a platelet-derived growth factor receptor (PDGFR) was introduced into the multicloning site of pcDNA3.1, which was a mammalian expression vector. HEK293T cells were transfected with these plasmids by using lipofectamine 2000. After transfection with the plasmids, the HEK293T cells were allowed to stand at 37° C. for 36 hours and then washed with a phosphoric acid buffer (PBS). A culture medium containing CATP (5 μM) was added thereto, which then was allowed to stand for 30 minutes.

[3] = tested on: MBP-PYP expressed in HEK293T cells; assay: Labeling reaction with CATP in cultured cell, MBP-PYP (fluorescence microscopy); assay type: cell-based, Halorhodospira halophila; conditions: CATP 5 μM, 30 minutes
Protocol: as §1

[4] = biological target: T1, PYP; assay: Reaction of compound FCTP with PYP in HEK293T cell lysate, SDS-PAGE; assay type: binding
Protocol: In a HEK293T cell lysate dissolved in Tris buffer (20 mM Tris-HCl, 150 mM NaCl, 1 mM TCEP (pH 8.0)), 5 μM of PYP was reacted with 50 μM of compound FCTP at 37° C. for 30 minutes in the presence or absence of 10 mM MESNa. After completion of the reaction, it was analyzed by SDS-PAGE (20% acrylamide separation gel). […] On the other hand, the fluorescent band on the high molecular weight side disappeared upon addition of MESNa (10 mM), which was a type of thiol compound. It was confirmed that an addition of a certain amount of free thiol allowed labeling to be carried out specifically in the cell lysate.

[5] = biological target: T1, PYP; assay: Fluorescent properties of FCTP (fluorescence and excitation spectra with and without PYP); conditions: 8 μM compound, Tris buffer pH 8.0, 37° C.
Protocol: In order to examine the fluorescent properties of compound FCTP bound to the PYP, Tris buffer (20 mM Tris-HCl, 150 mM NaCl, 1 mM TCEP (pH 8.0)), the fluorescence and excitation spectra were measured at 37° C.

[6] = tested on: PYP-TM expressed on HEK293T cells; assay: Labeling reaction with FCTP in cultured cell (fluorescence microscopy); assay type: cell-based, Halorhodospira halophila; conditions: FCTP 20 μM, 30 minutes
Protocol: In order to express a PYP on the cell surface, a plasmid was prepared in which a gene PYP-TM obtained by fusing a PYP with the transmembrane domain of a platelet-derived growth factor receptor (PDGFR) was introduced into the multicloning site of pcDNA3.1, which is a mammalian expression vector. HEK293T cells were transfected with this plasmid by using lipofectamine 2000. After transfection with the plasmid, the HEK293T cells were allowed to stand at 37° C. for 36 hours and then washed with a phosphoric acid buffer (PBS). A culture medium containing FCTP (20 μM) was added thereto, which then was allowed to stand for 30 minutes. […] With the fluorescence microscope having an excitation wavelength of 488 nm, the cells were observed using a fluorescent filter of 510 to 550 nm.

## [N-]=[N+]=NCCOCCOCCOCc1cc(O)cc2oc(=O)c(C(=O)Sc3ccccc3)cc12 [CATP]
[1]; DTT (100 mM) added after labeling
  thioester bond between the PYP and compound upon addition of DTT: hydrolyzed by a large excess of DTT
[2]
  fluorescent labeling in cells where PYP-TM was not expressed: neither fluorescent labeling with FCTP nor that with CATP was observed
[2]; excitation 436 nm
  fluorescent labeling in PYP-TM expressed cells: observed
[3]
  fluorescent labeling in cells in which MBP-PYP was not expressed: not observed
[3]; excitation 436 nm
  fluorescent labeling in cells in which MBP-PYP was expressed: observed

## O=C(NCc1cn(COCCOCCOCc2cc(O)cc3oc(=O)c(C(=O)Sc4ccccc4)cc23)nn1)c1ccc(C(=O)O)c(-c2c3ccc(=O)cc-3oc3cc(O)ccc23)c1 [FCTP]
[1]; 5 μM PYP, 12.5 μM compound, Tris buffer pH 8.0, 37° C., 24 hours
  labeling of the PYP (slowly migrating band, fluorescence on gel): able to label the PYP
[4]; 5 μM PYP, 50 μM compound, 37° C., 30 minutes
  fluorescent labeling of PYP in cell lysate: fluorescence was observed in the vicinity of the PYP band
[4]; absence of MESNa
  fluorescent band in the high molecular weight range (non-specific labeling) in cell lysate: another fluorescent band was observed in the high molecular weight range
[4]; addition of MESNa (10 mM)
  fluorescent band on the high molecular weight side in cell lysate: disappeared
[5]; 5 μM PYP, time-dependent
  fluorescence intensity of compound in the presence of PYP: increased in the presence of the PYP with the passage of time
[5]; no PYP, excitation at 500 nm
  fluorescence intensity of compound alone: very weak
[6]
  fluorescent labeling in cells where PYP-TM was not expressed: neither fluorescent labeling with FCTP nor that with CATP was observed
[6]; excitation 488 nm
  fluorescent labeling in PYP-TM expressed cells: observed
